Reference: the NIST ThermoML archive (doi:10.1016/j.jct.2005.04.013)
± gives the expanded uncertainty stated by the source.

Experiment: activity coefficient (dimensionless); of the first substance listed, at infinite dilution; xn = mol fraction of the nth substance listed
Conditions: 363.65 K; Liquid; x1 = 0

Compared with `CCO` [ethanol] + CCCCCCCC[n+]1ccn(C)c1.F[B-](F)(F)F, `CO` [methanol] + CCn1cc[n+](C)c1.F[B-](F)(F)F is lower in activity coefficient: 0.81 ± 0.06 for the first, 0.4 ± 0.07 for the second.

Going from `CCO` [ethanol] + CCCCn1cc[n+](C)c1.F[B-](F)(F)F to `C1CCOC1` [tetrahydrofuran] + CCCCCCCC[n+]1ccn(C)c1.F[B-](F)(F)F, the activity coefficient falls from 1.25 ± 0.08 to 1.09 ± 0.06.

Compared with `CCO` [ethanol] + CCCCn1cc[n+](C)c1.[Cl-], `C1CCOC1` [tetrahydrofuran] + CCCCn1cc[n+](C)c1.F[B-](F)(F)F is higher in activity coefficient: 0.2 ± 0.07 for the first, 2 ± 0.18 for the second.

First: CCO [ethanol] + CCn1cc[n+](C)c1.F[B-](F)(F)F
Second: C1CCOC1 [tetrahydrofuran] + CCCCn1cc[n+](C)c1.[Cl-]
The activity coefficient of the first is lower: 1.33 ± 0.09 for the first, 3.81 ± 0.35 for the second.

Compared with `C1CCOC1` [tetrahydrofuran] + CCn1cc[n+](C)c1.F[B-](F)(F)F, `O` [water] + CCCCCCCC[n+]1ccn(C)c1.F[B-](F)(F)F is lower in activity coefficient: 3.48 ± 0.32 for the first, 0.68 ± 0.06 for the second.

Molecule `O` [water] + CCCCn1cc[n+](C)c1.F[B-](F)(F)F has an activity coefficient of 0.61 ± 0.06.
`O` [water] + CCCCn1cc[n+](C)c1.[Cl-] showed an activity coefficient of 0.1.
Work on `O` [water] + CCn1cc[n+](C)c1.F[B-](F)(F)F yielded an activity coefficient of 0.45 ± 0.07.
